Results as given in patent US11117898B2, “Pyrazolo-heteroaryl derivative, preparation method and medical use thereof” (Jiangsu Hengrui Medicine Co., Ltd., priority 2016, dated 2021).

Tests used:
[1] = molecular target: human TLR8 (Homo sapiens (Human), UniProt Q9NR97); assay: Agonistic activity on human TLR8 in HEK-Blue hTLR8 stably transfected cells; format: cell-based; conditions: for EC50: OD 620 nm
Protocol: The activation effect of the compounds of the present invention on the hTLR8 protein expressed by the HEK-Blue™ hTLR8 stably transfected cells was determined by the following experimental method:
A bag of HEK-Blue detection dry powder was dissolved in 50 ml of water free of endotoxin, and the solution was then placed in an incubator at 37° C. for 10 minutes followed by sterile filtration to prepare a HEK-Blue detection medium. The compound was firstly formulated into a 20 mM stock solution, then diluted with pure DMSO to a maximum concentration of 6×10^6 nM, and a total of 10 points were obtained by a 3-fold gradient dilution. The compound was firstly diluted 20-fold with the medium, then 20 μl of the diluted compound were added to each well.
The supernate was removed from the HEK-Blue™ hTLR8 cells, to which 2-5 ml of pre-warmed PBS were then added. The cells were placed in an incubator for 1-2 minutes, gently pipetted, and counted by trypan blue staining. The cells were re-suspended in the HEK-Blue detection medium to adjust the concentration to 2.2×10^5 cells/ml. 180 μl of cells were added to the above 96-well plate already added with 20 μl of the compounds, and incubated at 37° C. for 6-16 hours.
The activation effect of the compounds of the present invention on human TLR8 can be determined by the above test, and the obtained EC50 values are shown in Table 2.

[2] = molecular target: CYP2D6 (Homo sapiens (Human), UniProt P10635); assay: Inhibition of the enzyme activity of CYP2D6 in human liver microsomes; format: in vitro ADME; conditions: probe substrate dextromethorphan
Chain of CYP2D6 (P10635 whole entry): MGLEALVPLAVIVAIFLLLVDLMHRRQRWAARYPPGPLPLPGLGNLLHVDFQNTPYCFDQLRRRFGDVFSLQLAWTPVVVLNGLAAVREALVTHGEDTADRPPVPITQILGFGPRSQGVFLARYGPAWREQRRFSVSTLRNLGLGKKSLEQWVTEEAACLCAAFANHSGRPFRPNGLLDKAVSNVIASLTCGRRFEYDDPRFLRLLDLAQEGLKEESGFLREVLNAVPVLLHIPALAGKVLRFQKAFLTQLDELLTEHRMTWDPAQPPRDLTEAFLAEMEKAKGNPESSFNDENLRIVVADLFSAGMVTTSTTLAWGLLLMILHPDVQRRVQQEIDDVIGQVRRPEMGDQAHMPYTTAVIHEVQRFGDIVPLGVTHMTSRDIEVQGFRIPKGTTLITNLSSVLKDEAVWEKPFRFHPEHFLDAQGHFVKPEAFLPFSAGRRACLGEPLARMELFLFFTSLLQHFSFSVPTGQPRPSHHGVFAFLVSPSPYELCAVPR
Protocol: The effect of the compounds of the present invention on the enzyme activity of CYP2D6 in human liver microsomes was determined by the following experimental method:
100 mM PBS buffer was formulated, which was then used to formulate 2.5 mg/ml microsome solution and 5 mM NADPH solution. The 5× concentration of the compound working solution was diluted with PBS gradient (150, 50, 15, 5, 1.5, 0.15, 0.015, 0 μM). The 5× concentration of quinidine working solution was diluted with PBS gradient (150, 50, 15, 5, 1.5, 0.15, 0.015, 0 μM). Dextromethorphan working solution was diluted with PBS to a concentration of 50 μM.
20 μl of 2.5 mg/ml microsome solution, 20 μl of 50 μM testosterone working solution, 20 μl of MgCl2 solution and 20 μl of the compound working solution (150, 50, 15, 5, 1.5, 0.15, 0.015, 0 μM, different reaction systems for each concentration) were taken respectively and mixed well. For the positive control group, the compound was replaced with the same concentration of quinidine. The mixture together with 5 mM NADPH solution were pre-incubated at 37° C. for 5 minutes. After 5 minutes, 20 μl of NADPH were added to each well, the reaction was started and incubated for 30 minutes. All the incubated samples were present in duplicate. After 30 minutes, 250 μl of acetonitrile containing internal standard were added to all samples, mixed well, shaken at 800 rpm for 10 minutes, and then centrifuged at 3700 rpm for 10 minutes. 80 μl of the supernatant were taken and analyzed by LC-MS/MS.
The data were calculated by Graphpad Prism to obtain the IC50 values of the compounds on the metabolite site of CYP2D6.

Chain of human TLR8 (Q9NR97 27-1041): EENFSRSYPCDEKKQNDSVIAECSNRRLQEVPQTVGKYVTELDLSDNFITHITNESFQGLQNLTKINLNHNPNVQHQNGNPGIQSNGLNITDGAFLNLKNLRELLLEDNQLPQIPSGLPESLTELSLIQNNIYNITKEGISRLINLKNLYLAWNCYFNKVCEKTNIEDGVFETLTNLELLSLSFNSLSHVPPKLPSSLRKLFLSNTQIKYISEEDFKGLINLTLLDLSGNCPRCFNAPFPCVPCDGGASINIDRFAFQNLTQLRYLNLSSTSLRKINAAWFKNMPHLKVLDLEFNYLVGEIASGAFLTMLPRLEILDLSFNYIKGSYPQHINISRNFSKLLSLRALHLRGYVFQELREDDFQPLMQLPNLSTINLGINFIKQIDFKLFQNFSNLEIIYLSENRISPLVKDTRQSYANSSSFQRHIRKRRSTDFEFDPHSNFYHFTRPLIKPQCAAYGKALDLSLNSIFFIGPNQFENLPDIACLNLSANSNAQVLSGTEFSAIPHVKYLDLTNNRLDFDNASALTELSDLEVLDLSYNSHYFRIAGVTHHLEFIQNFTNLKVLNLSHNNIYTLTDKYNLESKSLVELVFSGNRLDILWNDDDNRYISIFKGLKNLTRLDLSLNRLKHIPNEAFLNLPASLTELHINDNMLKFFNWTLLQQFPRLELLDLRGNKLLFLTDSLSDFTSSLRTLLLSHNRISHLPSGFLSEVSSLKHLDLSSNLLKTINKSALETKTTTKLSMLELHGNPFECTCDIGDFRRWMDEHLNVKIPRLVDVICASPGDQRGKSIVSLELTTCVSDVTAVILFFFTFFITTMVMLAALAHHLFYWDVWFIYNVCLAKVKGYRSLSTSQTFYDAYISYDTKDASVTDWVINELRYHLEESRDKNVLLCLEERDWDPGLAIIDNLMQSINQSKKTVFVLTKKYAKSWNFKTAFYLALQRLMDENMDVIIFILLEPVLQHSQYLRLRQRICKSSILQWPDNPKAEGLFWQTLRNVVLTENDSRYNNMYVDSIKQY

SMILES | Emax [1] [%] | EC50 [1] [µM] | IC50 [2] [µM]
COCCOc1nc(N)c2cnn(Cc3ccc(CN4CCCC4)cc3)c2n1 [Example 7, 6-(2-Methoxyethoxy)-1-(4-(pyrrolidin-1-ylmethyl)benzyl)-1H-pyrazolo[3,4-d]pyrimidin-4-amine] | 0 | > 30 | > 30
CCCCOc1nc(N)c2cnn(Cc3ccc(CN4CCC4)cc3)c2n1 [Example 2, 1-(4-(Azetidin-1-ylmethyl)benzyl)-6-butoxy-1H-pyrazolo[3,4-d]pyrimidin-4-amine] | 52 | > 29 | > 30
CCCCOc1nc(N)c2cnn(Cc3ccc(CN4CCCCC4)cc3)c2n1 [Example 3, 6-Butoxy-1-(4-(piperidin-1-ylmethyl)benzyl)-1H-pyrazolo[3,4-d]pyrimidin-4-amine] | 2 | > 24 | 4
CCCCOc1nc(N)c2cnn(Cc3cccc(CN4CCCC4)c3)c2n1 [Example 4, 6-Butoxy-1-(3-(pyrrolidin-1-ylmethyl)benzyl)-1H-pyrazolo[3,4-d]pyrimidin-4-amine] | 28 | > 30 | 16
